Experimental data as given in ChEMBL document CHEMBL1129005 (Bioorg Med Chem Lett, 1996).

Assays:
[1] = target: T1, Muscarinic acetylcholine receptor M1 (Homo sapiens, UniProt P11229); assay: Compound was evaluated for displacement of [3H]QNB from human Muscarinic m1 receptor in CHO cells.; assay type: cell-based
T1 sequence (P11229 whole entry): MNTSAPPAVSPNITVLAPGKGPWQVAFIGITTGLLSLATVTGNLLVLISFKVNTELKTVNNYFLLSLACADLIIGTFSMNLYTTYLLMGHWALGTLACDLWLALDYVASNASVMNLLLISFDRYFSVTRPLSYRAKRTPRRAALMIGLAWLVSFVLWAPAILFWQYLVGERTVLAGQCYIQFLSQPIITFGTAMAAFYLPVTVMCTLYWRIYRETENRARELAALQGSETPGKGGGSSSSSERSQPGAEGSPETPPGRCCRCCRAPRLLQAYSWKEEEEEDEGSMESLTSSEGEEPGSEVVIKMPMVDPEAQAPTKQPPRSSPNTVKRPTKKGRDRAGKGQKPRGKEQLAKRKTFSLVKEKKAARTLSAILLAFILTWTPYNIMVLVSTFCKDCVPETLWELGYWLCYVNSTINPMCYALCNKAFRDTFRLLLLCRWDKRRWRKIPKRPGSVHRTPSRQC

[2] = target: T2, Muscarinic acetylcholine receptor M2 (Homo sapiens, UniProt P08172); assay: Compound was evaluated for displacement of [3H]-QNB from human Muscarinic m2 receptor in CHO cells.; assay type: cell-based
T2 sequence (P08172 whole entry): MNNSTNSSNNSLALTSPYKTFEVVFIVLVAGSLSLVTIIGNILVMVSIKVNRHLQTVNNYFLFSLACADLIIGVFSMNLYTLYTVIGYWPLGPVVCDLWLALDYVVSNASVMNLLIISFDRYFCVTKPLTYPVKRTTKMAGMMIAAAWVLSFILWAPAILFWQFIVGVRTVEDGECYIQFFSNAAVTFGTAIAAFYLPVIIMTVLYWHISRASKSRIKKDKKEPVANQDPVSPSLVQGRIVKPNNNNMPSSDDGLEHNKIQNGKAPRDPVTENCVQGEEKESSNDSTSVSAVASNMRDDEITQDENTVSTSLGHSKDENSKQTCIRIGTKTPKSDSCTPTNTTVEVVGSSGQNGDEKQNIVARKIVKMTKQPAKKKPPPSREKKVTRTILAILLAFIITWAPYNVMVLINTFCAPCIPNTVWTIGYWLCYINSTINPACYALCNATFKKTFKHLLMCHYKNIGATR

| Ki [1] | Ki [2] | SMILES |
| --- | --- | --- |
| 82.4 nM | 71.2 nM | CC1CCN(CC(=O)N2c3ccccc3C(=O)Nc3cccnc32)CC1 |
| 179 nM | 52 nM | CCN(CC)CC1CCCCN1CC(=O)N1c2ccccc2C(=O)Nc2cccnc21 (stereo unspecified) [OTENZEPAD] |
| 12.4 nM | 5.28 nM | CCCN(CCC)CC1CCCCN1CCNC(=O)N1c2ccccc2C(=O)Nc2cccnc21 (stereo unspecified) |
